Reference: patent US20250144067A1, “PERSONALIZED STARVATION THERAPY FOR CANCER” (Faeth Therapeutics, Inc., priority 2021, published 2025)
Counter-ions that a name gives are not always drawn. Like-named read-outs stand apart in the source and are kept apart here.

Key:
[1] = test system: NCI-H292 lung cancer cells; test: FDA drug screening, complete media vs cholesterol-free media with simvastatin (TABLE 2); format: cell-based, human
[2] = test system: NCI-H292 lung cancer cells; test: FDA drug screening, complete media vs cholesterol-free media without statin (TABLE 1); format: cell-based, human
[3] = NCI-H292 cells, cholesterol-free media without statin, FDA drug library screen
[4] = NCI-H292 cells, complete media, FDA drug library screen
[5] = NCI-H292 cells, FDA drug library screen, cholesterol-free media with simvastatin 0.04 μM
[6] = NCI-H292 cells, FDA drug library screen, complete media
[7] = complete media vs cholesterol-free media + simvastatin (0.04 μM), […]
[8] = NCI-H292 cells, cholesterol-free media with simvastatin 0.04 μM, FDA drug library screen (TABLE 2)
[9] = NCI-H292 cells, complete media, FDA drug library screen (TABLE 2)
[10] = complete media minus cholesterol-free media + simvastatin (0.04 μM), >0 enhanced anti-cancer activity, about 0 neutral, <0 antagonist
[11] = Complete minus Cholesterol-free, >0 enhanced anti-cancer activity, about 0 neutral, <0 antagonist
[12] = Complete minus Cholesterol-free, greater than 0 enhanced anti-cancer activity, about 0 neutral, below 0 antagonists
[13] = NCI-H292 cells in cholesterol-free media without statin
[14] = NCI-H292 cells in complete media
[15] = Complete minus Cholesterol-free, greater than 0 enhanced anti-cancer activity, about 0 neutral, below 0 antagonist
[16] = NCI-H292 cells, FDA drug library screen, cholesterol-free media without statin
[17] = NCI-H292 cells, cholesterol-free media without statin

CCC(=O)O[C@H]1[C@H](O[C@@H]2[C@@H](C)[C@H](O[C@H]3C[C@@](C)(OC)[C@@H](O)[C@H](C)O3)[C@@H](C)C(=O)O[C@H](CC)[C@@](C)(O)[C@H](O)[C@@H](C)C(=O)[C@H](C)C[C@@]2(C)O)O[C@H](C)C[C@@H]1N(C)C [Erythromycin estolate]
Cholesterol-free media + simvastatin (0.04 μM) ([1]; NCI-H292 cells, FDA library drug in cholesterol-free media with simvastatin 0.04 μM): 1.347 | Complete Media ([1]; NCI-H292 cells, FDA library drug in complete media): 1.076 | Difference ([1]; complete media vs cholesterol-free media + simvastatin (0.04 μM), >0 enhanced anti-cancer activity, about 0 neutral, <0 antagonist): −0.27 | Cholesterol-free [2, 3]: 0.6279 | Complete [2, 4]: 1.129 | Difference ([2]; complete vs cholesterol-free media, >0 enhanced anti-cancer activity, about 0 neutral, <0 antagonist): 0.50

Cinepazide (Maleate)
Cholesterol-free media + simvastatin (0.04 μM) [1, 5]: 1.132 | Complete Media [1, 6]: 1.001 | Difference [1, 7]: −0.13 | Cholesterol-free [2, 3]: 0.7192 | Complete [2, 4]: 1.265 | Difference ([2]; complete vs cholesterol-free media, […]): 0.55

O=C1c2c(O)ccc(O)c2C(=O)c2c(NCCNCCO)ccc(NCCNCCO)c21 [Mitoxantrone]
Cholesterol-free media + simvastatin (0.04 μM) [1, 8]: 0.04539 | Complete Media [1, 9]: −0.01641 | Difference [1, 10]: −0.06 | Difference [2, 11]: −0.04 | Cholesterol-free [2, 3]: 0.007289 | Complete [2, 4]: −0.03159

CC1=NN(c2ccc(C)c(C)c2)C(=O)/C1=N\Nc1cccc(-c2cccc(C(=O)O)c2)c1O [Eltrombopag (Olamine)]
Cholesterol-free media + simvastatin (0.04 μM) [1, 8]: 1.098 | Complete Media [1, 9]: 1.058 | Difference [1, 10]: −0.04 | Difference [2, 12]: −0.96 | Cholesterol-free [2, 13]: 1.745 | Complete [2, 14]: 0.7856

CC(C)CN(C[C@@H](O)[C@H](Cc1ccccc1)NC(=O)O[C@H]1CO[C@H]2OCC[C@H]21)S(=O)(=O)c1ccc(N)cc1 [Darunavir]
Cholesterol-free media + simvastatin (0.04 μM) [1]: 0.9174 | Complete Media [1]: 0.7724 | Difference [1]: −0.14 | Cholesterol-free [2]: 1.103 | Complete [2]: 0.8067 | Difference [2]: −0.30

CC[C@@]1(O)C(=O)OCc2c1cc1n(c2=O)Cc2c-1nc1ccccc1c2CCNC(C)C [Belotecan (hydrochloride)]
Cholesterol-free media + simvastatin (0.04 μM) [1, 8]: −0.0005237 | Complete Media [1, 9]: 0.007701 | Difference [1, 10]: 0.01 | Difference [2, 11]: 0.00 | Cholesterol-free [2, 3]: 0.00566 | Complete [2, 4]: 0.01027

CCCCc1nc(C)c(CC(=S)N(C)C)c(=O)n1Cc1ccc(-c2ccccc2-c2nnn[nH]2)cc1 [Fimasartan]
Cholesterol-free media + simvastatin (0.04 μM) [1, 8]: 1.27 | Complete Media [1, 9]: 1.222 | Difference [1, 10]: −0.05 | Difference [2, 15]: −0.08 | Cholesterol-free [2, 16]: 1.327 | Complete [2, 6]: 1.249

Estradiol (cypionate)
Cholesterol-free media + simvastatin (0.04 μM) [1, 5]: 0.9809 | Complete Media [1, 6]: 0.8945 | Difference [1, 7]: −0.09 | Difference ([2]; Complete minus Cholesterol-free, […]): −0.22 | Cholesterol-free [2, 17]: 1.127 | Complete ([2]; NCI-H292 cells, complete media): 0.9066

CCc1ccc(Cc2ccc3c(c2)[C@]2(OC3)O[C@H](CO)[C@@H](O)[C@H](O)[C@H]2O)cc1 [Tofogliflozin (hydrate)]
Cholesterol-free media + simvastatin (0.04 μM) ([1]; NCI-H292 cells, cholesterol-free media with simvastatin 0.04 μM, cell growth value in FDA drug screen): 0.9605 | Complete Media ([1]; NCI-H292 cells, complete media, cell growth value in FDA drug screen): 1.04 | Difference ([1]; complete media minus cholesterol-free media + simvastatin, >0 enhanced anti-cancer activity, about 0 neutral, <0 antagonist): 0.08 | Cholesterol-free [2, 17]: 1.411 | Complete ([2]; NCI-H292 cells, complete media): 1.03 | Difference ([2]; complete vs cholesterol-free media, greater than 0 enhanced anti-cancer activity, about 0 neutral, below 0 antagonists): −0.38

CCn1cc(C(=O)O)c(=O)c2cc(F)c(N3CCNCC3)nc21 [Enoxacin (hydrate)]
Cholesterol-free media + simvastatin (0.04 μM) [1, 8]: 1.166 | Complete Media [1, 9]: 1.164 | Difference [1, 10]: 0.00 | Difference [2, 12]: −0.49 | Cholesterol-free [2, 13]: 1.532 | Complete [2, 14]: 1.045

CCOC(=O)c1ccc(C#Cc2ccc3c(c2)C(C)(C)CCS3)nc1 [Tazarotene]
Cholesterol-free media + simvastatin (0.04 μM) [1, 8]: 0.9107 | Complete Media [1, 9]: 0.8646 | Difference [1, 10]: −0.05 | Difference [2, 15]: −0.11 | Cholesterol-free [2, 16]: 0.7313 | Complete [2, 6]: 0.6177
